In brackets after ≈: the same amount, converted by molar mass. Read-outs that look alike come from different tables or passages of the source.
Assays:
E. coli PBP3 = E. coli PBP3 (Escherichia coli (strain K12), UniProt P0AD68); assay: E. coli PBP3 Bocillin-FL fluorescence polarization competition binding assay
In short: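 Polarization at 490/520 nm was monitored for 60 minutes in pH 8.0 Hepes buffer containing 300 mM NaCl and 5% glycerol, with compound spanning 0–1000 μM.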

E. coli ATCC 25922 = assay: Broth microdilution MIC, E. coli ATCC 25922; type: cell-based; details: Escherichia coli, ATCC25922; E. coli ATCC 25922, broth microdilution; read-out: MIC E. coli 25922
In short: (§1)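 Following CLSI guidance, growth inhibition is measured in Mueller-Hinton broth with divalent cations. Inoculum 5×10^5 CFU/mL; incubation 16-20 hours, 37° C; endpoint is visual absence of growth.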

E. coli AG100 = assay: Broth microdilution MIC, E. coli AG100 (wild-type parent); type: cell-based; details: Escherichia coli; wild-type parent E. coli AG100, broth microdilution; read-out: MIC E. coli AG100
In short: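 Broth microdilution in cation-supplemented Mueller-Hinton broth, 2-fold serial compound dilutions, inoculum 5×10^5 CFU/mL from 3-5 h log culture.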

E. coli 901C = assay: microbe, parasite or virus in culture; type: cell-based; details: Escherichia coli; hyper-permeable E. coli 901C, broth microdilution; read-out: MIC E. coli 901C
In short: as §1

E. coli AG100A = assay: microbe, parasite or virus in culture; type: cell-based; details: Escherichia coli, read-out: MIC E. coli AG100A
In short: as §1

E. coli D22 = assay: microbe, parasite or virus in culture; type: cell-based; details: Escherichia coli; hyper-permeable E. coli D22, broth microdilution; read-out: MIC E. coli D22
In short: as §1

K. pneumoniae SI-117 = assay: microbe, parasite or virus in culture; type: cell-based; details: Klebsiella pneumoniae, SI117, read-out: MIC K. pneumoniae SI-117
In short: as §1

K. pneumoniae UMM = assay: microbe, parasite or virus in culture; type: cell-based; details: Klebsiella pneumoniae; K. pneumoniae UMM producing SHV-5 and KPC-2; read-out: MIC K. pneumoniae UMM
In short: as §1

K. pneumoniae 848844 = assay: microbe, parasite or virus in culture; type: cell-based, Klebsiella pneumoniae; details: Klebsiella pneumoniae; K. pneumoniae 848844 producing SHV-11 and KPC-2; read-out: MIC K. pneumoniae 848844
In short: as §1

[1] = system: N. gonorrhoeae ATCC 49226; assay: Liquid broth MIC, N. gonorrhoeae ATCC 49226; type: cell-based; details: Neisseria gonorrhoeae, ATCC49226; N. gonorrhoeae ATCC 49226, liquid broth; read-out: Minimum Inhibitory Concentration, N. gonorrhoeae ATCC 49226
Procedure: (§2) Additional antibacterial testing of the series was performed in wild-type reference strains of N. gonorrhoeae (ATCC 49226, FA1090, WHO F and FA19). Liquid broth-based assays were used for antibacterial testing of PBP inhibitors in Neisseria gonorrhoeae. Briefly, cryo-preserved bacterial cultures of clinical strains are streaked for isolation on GC Base agar (BD #228950 at 36 g/L autoclaved at 121° C. for 20 minutes to sterilize) with 1% Kellogg's supplement (40 g glucose, 0.5 g glutamine, 0.05 g ferric nitrate and 2 mg cocarboxylase per 100 mL deionized water filter sterilized through 0.2 μm syringe filters). Following incubation at 36° C. and 5% CO2 to allow growth of colonies, strains are aseptically sub-cultured from original agar plate onto 3 agar plates per strain 24 hours before inoculum preparation. 2-fold serial dilutions of test compounds are conducted in a 96 well plate with a final volume of 150 μL per well at 4/3-fold the final desired concentration. For preparation of assay inoculum, a direct suspension is prepared by aseptically swabbing all colonies from sub-cultured agar plates into culture tubes containing 2 mL of fresh GC broth with […]. After the dilution plates are set up, direct suspensions are then diluted in a cuvette containing GC broth (15 g proteose peptone 43, 1 g corn starch, 4 g dipotassium phosphate, 1 g monopotassium phosphate and 5 g sodium chloride per liter of deionized water are mixed on a stir plate for 20 minutes, pH adjusted to 7.2+/−0.2 pH units with 1 N HCl, centrifuged at 10,000×g for 20 minutes to pellet undissolved corn starch and then autoclaved at 121° C. for 20 minutes to sterilize) and the optical density is measured at 600 nm. Inocula are diluted such that 50 μL of this culture in […] results in a starting bacterial concentration of 5×10^5 CFU/mL when added to the dilution plates. The plates are incubated 40-42 hours at 36° C. and 5% CO2. The MIC is read visually as the lowest concentration well with no bacterial growth.

N. gonorrhoeae FA1090 = assay: Liquid broth MIC, N. gonorrhoeae FA1090; type: cell-based; details: Neisseria gonorrhoeae; N. gonorrhoeae FA1090, liquid broth; read-out: Minimum Inhibitory Concentration, N. gonorrhoeae FA1090
Procedure: as §2

N. gonorrhoeae WHO F = assay: Liquid broth MIC, N. gonorrhoeae WHO F; type: cell-based; details: Neisseria gonorrhoeae; N. gonorrhoeae WHO F, liquid broth; read-out: Minimum Inhibitory Concentration, N. gonorrhoeae WHO F
Procedure: as §2

N. gonorrhoeae FA19 = assay: Liquid broth MIC, N. gonorrhoeae FA19; type: cell-based; details: Neisseria gonorrhoeae; N. gonorrhoeae FA19, liquid broth; read-out: Minimum Inhibitory Concentration, N. gonorrhoeae FA19
Procedure: as §2

[2] = fluorescence polarization competition binding with Bocillin-FL, read-out: E. coli K12 PBP3 Potency

Chain of E. coli PBP3 (P0AD68 whole entry): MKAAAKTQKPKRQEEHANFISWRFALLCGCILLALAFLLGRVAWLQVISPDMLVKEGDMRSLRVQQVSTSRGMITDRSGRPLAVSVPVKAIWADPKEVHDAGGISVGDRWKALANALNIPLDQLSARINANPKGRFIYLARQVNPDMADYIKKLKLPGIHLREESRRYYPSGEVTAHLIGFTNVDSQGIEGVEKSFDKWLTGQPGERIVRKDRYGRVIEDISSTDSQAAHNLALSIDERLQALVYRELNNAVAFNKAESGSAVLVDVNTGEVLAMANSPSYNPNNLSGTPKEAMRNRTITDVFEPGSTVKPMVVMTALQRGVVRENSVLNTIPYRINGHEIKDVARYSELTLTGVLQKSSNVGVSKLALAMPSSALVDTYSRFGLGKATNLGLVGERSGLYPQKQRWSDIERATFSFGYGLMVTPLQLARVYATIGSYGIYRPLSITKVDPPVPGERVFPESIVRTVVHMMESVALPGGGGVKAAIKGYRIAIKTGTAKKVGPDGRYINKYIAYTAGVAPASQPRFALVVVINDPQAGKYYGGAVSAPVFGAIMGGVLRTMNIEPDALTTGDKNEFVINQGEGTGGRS

SMILES	EC50 (E. coli PBP3) [µM]	MIC (E. coli ATCC 25922) [µg/mL]	MIC (E. coli AG100) [µg/mL]	MIC (E. coli 901C) [µg/mL]	MIC (E. coli AG100A) [µg/mL]	MIC (E. coli D22) [µg/mL]	MIC (K. pneumoniae SI-117) [µg/mL]	MIC (K. pneumoniae UMM) [µg/mL]	MIC (K. pneumoniae 848844) [µg/mL]	MIC [1] [µg/mL]	MIC (N. gonorrhoeae FA1090) [µg/mL]	MIC (N. gonorrhoeae WHO F) [µg/mL]	MIC (N. gonorrhoeae FA19) [µg/mL]	EC50 (E. coli PBP3; [2]) [µM]
CCN1CCN(C(=O)N[C@H](C(=O)N[C@H]2Cc3ccc(F)c(C(=O)O)c3OB2O)c2ccc(O)c(F)c2)C(=O)C1=O [Example 160, (R)-3-((S)-2-(4-ethyl-2,3-dioxopiperazine-1-carboxamido)-2-(3-fluoro-4-hydroxyphenyl)acetamido)-7-fluoro-2-hydroxy-3,4-dihydro-2H-benzo[e][1,2]oxaborinine-8-carboxylic acid]	30 to 500	> 128	> 128	2 to 4	> 128	32 to 64	> 128	> 128	> 128	16 to 32 (≈ 28.6 to 57.1 µM)	0.25 to 0.5 (≈ 0.446 to 0.892 µM)	0.25 to 0.5 (≈ 0.446 to 0.892 µM)	16 to 32 (≈ 28.6 to 57.1 µM)	–
O=C(O)c1cccc2c1OB(O)[C@@H](NC(=O)C(NC(=O)N1CCN(CCF)C(=O)C1=O)c1ncc(O)cc1F)C2 (stereo partly drawn) [Example 179, (3R)-3-(2-(3-fluoro-5-hydroxypyridin-2-yl)-2-(4-(2-fluoroethyl)-2,3-dioxopiperazine-1-carboxamido)acetamido)-2-hydroxy-3,4-dihydro-2H-benzo[e][1,2]oxaborinine-8-carboxylic acid]	–	8 to 16	8 to 16	< 0.25	0.5 to 1	0.5 to 1	8 to 16	2 to 4	32 to 64	0.25 to 0.5 (≈ 0.445 to 0.891 µM)	< 0.125	< 0.125	4 to 8 (≈ 7.13 to 14.3 µM)	< 30
CCN1CCN(C(=O)NC(C(=O)N[C@H]2Cc3cccc(C(=O)O)c3OB2O)c2ccc(C(N)=O)cc2)C(=O)C1=O (stereo partly drawn) [Example 186, (3R)-3-(2-(4-carbamoylphenyl)-2-(4-ethyl-2,3-dioxopiperazine-1-carboxamido)acetamido)-2-hydroxy-3,4-dihydro-2H-benzo[e][1,2]oxaborinine-8-carboxylic acid]	30 to 500	32 to 64	8 to 16	< 0.25	2 to 4	0.5 to 1	> 128	32 to 64	> 128	1 to 2 (≈ 1.81 to 3.63 µM)	< 0.125	< 0.125	1 to 2 (≈ 1.81 to 3.63 µM)	–
NC(=O)c1ccc(C(NC(=O)N2CCN(CCF)C(=O)C2=O)C(=O)N[C@H]2Cc3cccc(C(=O)O)c3OB2O)cc1 (stereo partly drawn) [Example 187, (3R)-3-(2-(4-carbamoylphenyl)-2-(4-(2-fluoroethyl)-2,3-dioxopiperazine-1-carboxamido)acetamido)-2-hydroxy-3,4-dihydro-2H-benzo[e][1,2]oxaborinine-8-carboxylic acid]	30 to 500	32 to 64	8 to 16	< 0.25	2 to 4	0.5 to 1	> 128	32 to 64	> 128	0.25 to 0.5 (≈ 0.439 to 0.878 µM)	< 0.125	< 0.125	0.25 to 0.5 (≈ 0.439 to 0.878 µM)	–
CCN1C[C@H](C)N(C(=O)NC(C(=O)N[C@H]2Cc3cccc(C(=O)O)c3OB2O)c2ncc(O)cc2F)C(=O)C1=O (stereo partly drawn) [Example 192, (3R)-3-(2-((S)-4-ethyl-6-methyl-2,3-dioxopiperazine-1-carboxamido)-2-(3-fluoro-5-hydroxypyridin-2-yl)acetamido)-2-hydroxy-3,4-dihydro-2H-benzo[e][1,2]oxaborinine-8-carboxylic acid]	–	2 to 4	8 to 16	< 0.25	0.5 to 1	0.5 to 1	32 to 64	8 to 16	32 to 64	1 to 2 (≈ 1.79 to 3.59 µM)	< 0.125	< 0.125	1 to 2 (≈ 1.79 to 3.59 µM)	< 30
CCN1CCN(C(=O)NC(C(=O)N[C@H]2Cc3cccc(C(=O)O)c3OB2O)c2ncc(O)cn2)C(=O)C1=O (stereo partly drawn) [Example 202, (3R)-3-(2-(4-ethyl-2,3-dioxopiperazine-1-carboxamido)-2-(5-hydroxypyrimidin-2-yl)acetamido)-2-hydroxy-3,4-dihydro-2H-benzo[e][1,2]oxaborinine-8-carboxylic acid]	30 to 500	32 to 64	32 to 64	0.5 to 1	2 to 4	8 to 16	32 to 64	32 to 64	> 128	4 to 8 (≈ 7.6 to 15.2 µM)	0.25 to 0.5 (≈ 0.475 to 0.95 µM)	0.25 to 0.5 (≈ 0.475 to 0.95 µM)	4 to 8 (≈ 7.6 to 15.2 µM)	–
NS(=O)(=O)c1ccc(C(NC(=O)N2CCN(CCF)C(=O)C2=O)C(=O)N[C@H]2Cc3cccc(C(=O)O)c3OB2O)cc1F (stereo partly drawn) [Example 211, (3R)-3-(2-(3-fluoro-4-sulfamoylphenyl)-2-(4-(2-fluoroethyl)-2,3-dioxopiperazine-1-carboxamido)acetamido)-2-hydroxy-3,4-dihydro-2H-benzo[e][1,2]oxaborinine-8-carboxylic acid]	30 to 500	32 to 64	32 to 64	< 0.25	2 to 4	2 to 4	> 128	32 to 64	> 128	4 to 8 (≈ 6.42 to 12.8 µM)	0.25 to 0.5 (≈ 0.401 to 0.802 µM)	0.25 to 0.5 (≈ 0.401 to 0.802 µM)	4 to 8 (≈ 6.42 to 12.8 µM)	–
CCN1CCN(C(=O)NC(C(=O)N[C@H]2Cc3cccc(C(=O)O)c3OB2O)c2ncc(N)cc2F)C(=O)C1=O (stereo partly drawn) [Example 214, (3R)-3-(2-(5-amino-3-fluoropyridin-2-yl)-2-(4-ethyl-2,3-dioxopiperazine-1-carboxamido)acetamido)-2-hydroxy-3,4-dihydro-2H-benzo[e][1,2]oxaborinine-8-carboxylic acid]	30 to 500	8 to 16	32 to 64	0.5 to 1	2 to 4	2 to 4	32 to 64	32 to 64	32 to 64	4 to 8 (≈ 7.38 to 14.8 µM)	< 0.125	< 0.125	4 to 8 (≈ 7.38 to 14.8 µM)	–
O=C(O)c1cccc2c1OB(O)[C@@H](NC(=O)C(NC(=O)N1C[C@@H]3CCCN3C(=O)C1=O)c1ncc(O)cc1F)C2 (stereo partly drawn) [Example 223, (3R)-3-(2-((S)-3,4-dioxooctahydropyrrolo[1,2-a]pyrazine-2-carboxamido)-2-(3-fluoro-5-hydroxypyridin-2-yl)acetamido)-2-hydroxy-3,4-dihydro-2H-benzo[e][1,2]oxaborinine-8-carboxylic acid]	30 to 500	> 128	> 128	8 to 16	32 to 64	32 to 64	> 128	> 128	> 128	> 64	1 to 2 (≈ 1.8 to 3.6 µM)	1 to 2 (≈ 1.8 to 3.6 µM)	> 64	–

Reference: patent publication US12173018B2, “Penicillin-binding protein inhibitors” (priority 2018, dated 2024)
